The assay concerns the target T1, Recombinant human GSK3β (Homo sapiens, UniProt P49841).
T1 construct: His-tag; made in house; host or cells: Sf9 insect cells / baculovirus
Kind of assay: GSK-3β (Glycogen Synthase Kinase) cell free enzyme assay. Particulars: for inhibition at 1 µM: read-out: Percent inhibition at 1 μM; for IC50: cell free enzyme assay. The format is biochemical. The gist of the method: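 This cell-free kinase assay measured [33P] transfer from [33P]ATP gamma phosphate into the biotinylated peptide bio-LC-S-R-H-S-S-P-H-Q-pS-E-D-E-E-E-OH. After 60 min at RT, reactions were stopped with 0.66 volume of PBS lacking Ca or Mg containing 12.5 mM EDTA, 0.25% Triton-X 100, 125 uM ATP and 6.2 mg/ml streptavidin SPA beads. Bead-bound radioactivity was counted as CPM on a Trilux scintillation counter.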

The mark [1] stands for this setting: GSK-3β cell free enzyme assay, Examples 42-60.

Like-named read-outs stand apart in the source and are kept apart here.

T1 sequence (P49841 whole entry): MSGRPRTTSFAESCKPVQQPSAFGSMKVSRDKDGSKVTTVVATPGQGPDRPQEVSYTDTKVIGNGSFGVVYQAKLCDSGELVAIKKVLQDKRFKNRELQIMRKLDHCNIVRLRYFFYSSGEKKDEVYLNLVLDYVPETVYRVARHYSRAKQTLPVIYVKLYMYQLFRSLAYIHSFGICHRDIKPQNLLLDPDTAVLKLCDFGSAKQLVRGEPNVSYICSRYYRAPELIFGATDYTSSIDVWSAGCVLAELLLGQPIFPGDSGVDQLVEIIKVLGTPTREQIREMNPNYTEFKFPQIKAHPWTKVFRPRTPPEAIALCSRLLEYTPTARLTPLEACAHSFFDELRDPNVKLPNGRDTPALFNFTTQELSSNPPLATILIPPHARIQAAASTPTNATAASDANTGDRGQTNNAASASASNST

For orientation: inhibition means how much of the control response was suppressed. For `CC(=O)N1C[C@@H]2[C@H](C1)[C@H]2Nc1nc(-c2ccncc2)cc(=O)n1C` [Example 49, 2-{[(1R,5S,6s)-3-Acetyl-3-azabicyclo[3.1.0]hex-6-yl]amino}-3-methyl-6-pyridin-4-ylpyrimidin-4(3H)-one], the inhibition at 1 µM under setting [1] was 75%.

Broadly, the IC50 is the midpoint of a concentration-inhibition curve. As to `Cn1c(N[C@@H]2CCCN(C(=O)OCc3ccncc3)C2)nc(-c2ccncn2)cc1=O` [Example 233, Pyridin-4-ylmethyl (3R)-3-[(1-methyl-6-oxo-1,6-dihydro-4,4′-bipyrimidin-2-yl)amino]piperidine-1-carboxylate], under “Examples 222-234”, the IC50 was 0.005 µM.

As to `CCN(C[C@H]1CCCN1C(=O)c1ccccc1)c1nc(-c2ccncc2)cc(=O)n1C` [Example 77, 2-[{[(2R)-1-Benzoylpyrrolidin-2-yl]methyl}(ethyl)amino]-3-methyl-6-pyridin-4-ylpyrimidin-4(3H)-one], where the note is “Examples 62-155”, the IC50 was determined as 0.0295 µM.

For `COc1ccc(CC(=O)N2C[C@@H]3[C@H](C2)[C@H]3N(C)c2nc(-c3ccncc3F)cc(=O)n2C)cc1` [Example 109, 6-(3-Fluoropyridin-4-yl)-2-[{(1R,5S,6s)-3-[(4-methoxyphenyl)acetyl]-3-azabicyclo[3.1.0]hex-6-yl}(methyl)amino]-3-methylpyrimidin-4(3H)-one], the IC50 (Examples 62-155) was determined as 0.00403 µM.

On to `Cn1c(N2[C@@H]3CC[C@H]2CN(S(=O)(=O)c2ccccc2)C3)nc(-c2ccncc2)cc1=O` [Example 169, 3-Methyl-2-[(1R,5S)-3-(phenylsulfonyl)-38-diazabicyclo[3.2.1]oct-8-yl]-6-pyridin-4-ylpyrimidin-4(3H)-one], for which the “Percent inhibition at 1 μM” value (Examples 157-199) amounted to 92%.

Consider `Cn1c(N2CCN(C(=O)OC(C)(C)C)[C@@H]3CCCC[C@H]32)nc(-c2ccncc2)cc1=O` [Example 25, tert-butyl (4aR,8aR)-4-(1-Methyl-6-oxo-4-pyridin-4-yl-1,6-dihydropyrimidin-2-yl)octahydroquinox-aline-1(2H)-carboxylate], for which the IC50 (Examples 1-35) was 0.04 µM.

As for `Cn1c(N2CC[C@@H]3CN(Cc4ccccc4)C[C@@H]32)nc(-c2ccncc2)cc1=O` [Example 251, 2-[(3a,R6,aR)-5-Benzylhexahydropyrro-lo[34-b]pyrrol-1(2H)-yl]-3-methyl-6-pyridin-4-ylpyrimidin-4(3H)-one], the inhibition at 1 µM (Examples 236-262) came out at 47%.

For the compound `CC(=O)N1CCC(CNc2nc(-c3ccncc3)cc(=O)n2C)C1` (centres unmarked) [Example 59, 2-{[(1-Acetylpyrrolidin-3-yl)methyl]amino}-3-methyl-6-pyridin-4-ylpyrimidin-4(3H)-one], under setting [1], the inhibition at 1 µM is 37%.

Regarding `CN(c1nc(-c2ccncc2)cc(=O)n1C)C1CCCN(S(=O)(=O)c2ccccc2)CC1` (centres unmarked) [Example 181, 3-Methyl-2-{methyl[1-(phenylsulfonyl)azepan-4-yl]amino}-6-pyridin-4-ylpyrimidin-4(3H)-one], the inhibition at 1 µM (Examples 157-199) came out at 96%.

With `CCN(c1nc(-c2ccncc2)cc(=O)n1C)C1CCN(S(=O)(=O)Cc2ccccc2)CC1` [Example 199, 2-{[1-(Benzylsulfonyl)piperidin-4-yl](ethyl)amino}-3-methyl-6-pyridin-4-ylpyrimidin-4(3H)-one], under “Examples 157-199”, the inhibition at 1 µM came to 89%.

For `CN1[C@@H]2CC[C@H]1CN(c1nc(-c3ccncc3)cc(=O)n1C)C2` [Example 238, 3-Methyl-2-[(1R,5S)-8-methyl-38-diazabicyclo[3.2.1]oct-3-yl]-6-pyridin-4-ylpyrimidin-4(3H)-one], under “Examples 236-262”, the inhibition at 1 µM was 47%.

With `CN(c1nc(-c2ccncc2F)cc(=O)n1C)[C@H]1[C@@H]2CN(C(=O)C(C)(C)C)C[C@@H]21` [Example 121, 2-{[(1R,5S,6s)-3-(2,2-Dimethylpropanoyl)-3-azabicyclo[3.1.0]hex-6-yl](methyl)amino}-6-(3-fluoropyridin-4-yl)-3-methylpyrimidin-4(3H)-one], the IC50 (Examples 62-155) amounted to 0.00141 µM.

Consider “Methyl (3a,S5,S7,aR)-3a- methyl-5-[methyl(1-methyl- 6-oxo-4-pyridin-4-yl-16- dihydropyrimidin-2- yl)amino]octahydro-1H- indole-1-carboxylate [Example 212]”, for which the “Percent inhibition at 1 μM” value (Examples 201-221) is recorded as 93%.

Take `Cn1c(NCC2CCCCN2C(=O)OC(C)(C)C)nc(-c2ccncc2)cc1=O` (centres unmarked) [Example 35, tert-butyl 2-{[(1-Methyl-6-oxo-4-pyridin-4-yl-1,6-dihydropyrimidin-2-yl)amino]methyl} piperidine-1-carboxylate]: the IC50 (Examples 1-35) turned out to be 0.168 µM.

Turning to `CN(c1nc(-c2ccncc2)cc(=O)n1C)C1CCCN(Cc2ccccc2)CC1` (centres unmarked) [Example 255, 2-[(1-Benzylazepan-4-yl)(methyl)amino]-3-methyl-6-pyridin-4-ylpyrimidin-4(3H)-one], where the note is “Examples 236-262”, the inhibition at 1 µM amounted to 76%.

Take `CN(c1nc(-c2ccncc2F)cc(=O)n1C)[C@H]1[C@@H]2CN(C(=O)c3c(F)cc(F)cc3F)C[C@@H]21` [Example 117, 6-(3-Fluoropyridin-4-yl)-3-methyl-2-{methyl[(1R,5S,6s)-3-(2,4,6-trifluorobenzoyl)-3-azabicyclo[3.1.0]hex-6-yl]amino}pyrimidin-4(3H)-one]: under “Examples 62-155”, the IC50 was 0.00184 µM.

In the case of `CN(c1nc(-c2ccncc2)cc(=O)n1C)[C@@H]1CC[C@H]2N(S(=O)(=O)c3ccccc3)CC[C@@]2(C)C1` [Example 183, 3-Methyl-2-{methyl[(3,aS5,R7,aR)-3a-methyl-1-(phenylsulfonyl)octahydro-1H-indol-5-yl]amino}-6-pyridin-4-ylpyrimidin-4(3H)-one], the inhibition at 1 µM (Examples 157-199) stood at 100%.

On to `CCN(c1nc(-c2ccncc2)cc(=O)n1C)C1CCCN(S(C)(=O)=O)CC1` (centres unmarked) [Example 163, 2-{Ethyl[1-(methylsulfonyl)azepan-4-yl]amino}-3-methyl-6-pyridin-4-ylpyrimidin-4(3H)-one], for which the inhibition at 1 µM (Examples 157-199) was found to be 100%.

On to `CN1CCCC(Nc2nc(-c3ccncc3)cc(=O)n2C)CC1` (centres unmarked) [Example 241, 3-Methyl-2-[(1-methylazepan-4-yl)amino]-6-pyridin-4-ylpyrimidin-4(3H)-one], for which the inhibition at 1 µM (Examples 236-262) was determined as 72%.

For the compound `Cn1c(N[C@@H]2CN(C(=O)OC(C)(C)C)C[C@@H]2F)nc(-c2ccncc2)cc1=O` [Example 33, tert-butyl (3S,4R)-3-Fluoro-4-[(1-methyl-6-oxo-4-pyridin-4-yl-1,6-dihydropyrimidin-2-yl)amino]pyrrolidine-1-carboxylate], the IC50 (Examples 1-35) worked out at 0.077 µM.

Consider `CC(=O)N1C[C@H](F)[C@H](Nc2nc(-c3ccncc3)cc(=O)n2C)C1` [Example 51, 2-{[(3R,4S)-1-Acetyl-4-fluoropyrrolidin-3-yl]amino}-3-methyl-6-pyridin-4-ylpyrimidin-4(3H)-one], for which the inhibition at 1 µM under setting [1] worked out at 78%.

For the compound `COC(=O)N1CCC(Nc2nc(-c3ccncc3)cc(=O)n2C)CC1` [Example 208, Methyl 4-[(1-methyl-6-oxo-4-pyridin-4-yl-16-dihydropyrimidin-2-yl)amino]piperidine-1-carboxylate], the inhibition at 1 µM (Examples 201-221) turned out to be 77%.

On to `Cc1c(C(=O)N2C[C@@H]3[C@H](C2)[C@H]3N(C)c2nc(-c3ccncc3F)cc(=O)n2C)cnn1-c1ccccc1` [Example 155, 6-(3-Fluoropyridin-4-yl)-3-methyl-2-(methyl{(1R,5S,6s)-3-[(5-methyl-1-phenyl-1H-pyrazol-4-yl)carbonyl]-3-azabicyclo[3.1.0]hex-6-yl}amino)pyrimidin-4(3H)-one], for which the IC50 (Examples 62-155) amounted to 0.102 µM.

The values are drawn from patent US20100292205A1, “Pyrimidone Compounds As GSK-3 Inhibitors” (PFIZER INC., priority 2006, published 2010).
